Among the data in patent US20100143886A1, “IN VIVO HCV RESISTANCE TO ANTI-VIRAL INHIBITORS” (priority 2007, published 2010) are viral load suppression values, retold here.

“Also recorded” adds a separate entry of the source.

The test system of one assay is HCV genotype 3a. Briefly: Viral load by commercial RT-TaqMan assay, chimpanzee dosed with Compound A (Example 3). It counts as in vivo. Particulars: 2 mg per kg IV for 7 days, level of quantitation 20 IU/ml. How it is done:
A chimpanzee infected with a HCV genotype 3a from a human was dosed with Compound A (a N5B polymerase inhibitor) for 7 days at 2 mg per kg IV. Plasma samples were collected prior, during, and after the dosing regimen, with viral load determined by a commercial viral load assay (RT-TaqMan, level of quantitation 20 IU/ml, Cenetron Diagnostics, Austin, Tex. 78758).
For orientation: Real-time PCR tracks product formation cycle by cycle.

In another assay the test system is HCV genotype 1a. Briefly: Viral load by commercial RT-TaqMan assay, chimpanzees dosed with Compound B (Example 1). It is filed as in vivo, chimpanzee. The following applies: two chimpanzees, oral 5 mg per kg b.i.d. for 7 days; level of quantitation 20 IU/ml. The procedure:
Two chimpanzees chronically infected with HCV genotype 1a from a human were orally dosed with Compound B (a NS3 protease inhibitor) for 7 days at 5 mg per kg b.i.d. Plasma samples were collected prior, during, and after the dosing regimen, with viral load determined by a commercial viral load assay (RT-TaqMan, level of quantitation 20 IU/ml, Cenetron Diagnostics, Austin, Tex. 78758).

Regarding `C[C@@]1(O)[C@H](O)[C@@H](CO)O[C@H]1n1ccc2c(N)ncnc21` [Compound A], the viral load suppression result in the assay on HCV genotype 3a is given as “below the limit of quantitation (BLQ); also recorded: below quantifiable levels”.

In the case of `CC[C@@H]1C[C@]1(NC(=O)[C@@H]1C[C@@H]2CN1C(=O)[C@H](C(C)(C)C)NC(=O)OCC(C)(C)CCCCc1cccc3c1CN(C3)C(=O)O2)C(=O)NS(=O)(=O)C1CC1` [Compound B], the viral load suppression entry in the assay on HCV genotype 1a is given as “below quantifiable levels; also recorded: below the limit of quantitation (BLQ)”.
